From US9226916B2, “Pyrrolidine derivatives” (HOFFMANN-LA ROCHE INC., priority 2009, dated 2016) come the findings set out here.

In the test the target is T1, recombinant human NK3 receptor (Homo sapiens, UniProt P29371).
T1 construct: expressed in transfected cells; host or cells: HEK293 cells, transient expression; membranes
T1 sequence (P29371 1-465): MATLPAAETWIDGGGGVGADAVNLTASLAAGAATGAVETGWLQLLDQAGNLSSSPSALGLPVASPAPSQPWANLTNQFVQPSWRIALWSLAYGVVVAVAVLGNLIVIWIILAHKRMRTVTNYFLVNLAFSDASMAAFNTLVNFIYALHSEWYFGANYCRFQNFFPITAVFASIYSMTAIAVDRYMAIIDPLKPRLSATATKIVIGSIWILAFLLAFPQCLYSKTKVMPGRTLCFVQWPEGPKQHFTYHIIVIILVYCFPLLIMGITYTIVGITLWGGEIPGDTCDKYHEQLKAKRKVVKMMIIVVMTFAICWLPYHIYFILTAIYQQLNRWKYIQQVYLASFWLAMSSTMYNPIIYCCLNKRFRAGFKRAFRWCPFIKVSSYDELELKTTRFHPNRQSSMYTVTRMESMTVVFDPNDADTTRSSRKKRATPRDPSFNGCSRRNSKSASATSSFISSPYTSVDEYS
Nature of the test: [3H]SR142801 competition binding assay.

The term Ki denotes a dissociation constant, usually derived from enzyme kinetics or from competition with a known ligand.

`CN(C(=O)Oc1ccc(F)cc1)[C@@H]1CN(C(=O)C2CCN(C(=O)C3(C(F)(F)F)CC3)CC2)C[C@H]1c1ccc(Cl)c(Cl)c1` [Example 273, {(3S,4R)-4-(3,4-Dichloro-phenyl)-1-[1-(1-trifluoromethyl-cyclopropanecarbonyl)-piperidine-4-carbonyl]-pyrrolidin-3-yl}-methyl-carbamic acid 4-fluoro-phenyl ester]: the inhibition constant Ki was found to be 0.4 nM. With `CN(C(=O)Oc1ccc(F)cc1)[C@@H]1CN(C(=O)C2CCN(C(=O)C3CC3(F)F)CC2)C[C@H]1c1ccc(Cl)c(Cl)c1` (stereo partly drawn) [Example 274, {(3S,4R)-4-(3,4-Dichloro-phenyl)-1-[1-(2,2-difluoro-cyclopropanecarbonyl)-piperidine-4-carbonyl]-pyrrolidin-3-yl}-methyl-carbamic acid 4-fluoro-phenyl ester] the figure was 0.9 nM.

Take `CN(C(=O)Oc1ccc(F)cc1)[C@@H]1CN(C(=O)C2CCN(C(=O)C3CCOCC3)CC2)C[C@H]1c1ccc(Cl)c(Cl)c1` [Example 275, {(3S,4R)-4-(3,4-Dichloro-phenyl)-1-[1-(tetrahydro-pyran-4-carbonyl)-piperidine-4-carbonyl]-pyrrolidin-3-yl}-methyl-carbamic acid 4-fluoro-phenyl ester]: the Ki turned out to be 0.9 nM. Regarding `CN(C(=O)Oc1ccc(F)cc1)[C@@H]1CN(C(=O)C2CCN(C(=O)C3CCOC(C)(C)C3)CC2)C[C@H]1c1ccc(Cl)c(Cl)c1` (stereo partly drawn) [Example 276, {(3S,4R)-4-(3,4-Dichloro-phenyl)-1-[1-(2,2-dimethyl-tetrahydro-pyran-4-carbonyl)-piperidine-4-carbonyl]-pyrrolidin-3-yl}-methyl-carbamic acid 4-fluoro-phenyl ester], the inhibitory constant (Ki) was 1 nM. To `COCC1(C(=O)N2CCC(C(=O)N3C[C@@H](N(C)C(=O)Oc4ccc(F)cc4)[C@H](c4ccc(Cl)c(Cl)c4)C3)CC2)CC1` [Example 277, {(3S,4R)-4-(3,4-Dichloro-phenyl)-1-[1-(1-methoxymethyl-cyclopropanecarbonyl)-piperidine-4-carbonyl]-pyrrolidin-3-yl}-methyl-carbamic acid 4-fluoro-phenyl ester] belongs 0.5 nM; to `CN(C(=O)Oc1ccc(F)cc1)[C@@H]1CN(C(=O)C2CCN(C(=O)C3CC3(C)C)CC2)C[C@H]1c1ccc(Cl)c(Cl)c1` (stereo partly drawn) [Example 278, {(3S,4R)-4-(3,4-Dichloro-phenyl)-1-[1-(2,2-dimethyl-cyclopropanecarbonyl)-piperidine-4-carbonyl]-pyrrolidin-3-yl}-methyl-carbamic acid 4-fluoro-phenyl ester], 0.6 nM; to `CN(C(=O)Oc1ccc(F)cc1)[C@@H]1CN(C(=O)C2CCN(C(=O)c3ccc(C(F)(F)F)cn3)CC2)C[C@H]1c1ccc(Cl)c(Cl)c1` [Example 279, {(3S,4R)-4-(3,4-Dichloro-phenyl)-1-[1-(5-trifluoromethyl-pyridine-2-carbonyl)-piperidine-4-carbonyl]-pyrrolidin-3-yl}-methyl-carbamic acid 4-fluoro-phenyl ester], 2 nM. Consider `CN(C(=O)Oc1ccc(F)cc1)[C@@H]1CN(C(=O)C2CCN(C(=O)c3ccc(F)cn3)CC2)C[C@H]1c1ccc(Cl)c(Cl)c1` [Example 280, {(3S,4R)-4-(3,4-Dichloro-phenyl)-1-[1-(5-fluoro-pyridine-2-carbonyl)-piperidine-4-carbonyl]-pyrrolidin-3-yl}-methyl-carbamic acid 4-fluoro-phenyl ester], for which the inhibition constant (Ki) worked out at 0.8 nM. On to `CN(C(=O)Oc1ccc(F)cc1)[C@@H]1CN(C(=O)C2CCN(C(=O)C3CCC(=O)NC3)CC2)C[C@H]1c1ccc(Cl)c(Cl)c1` (stereo partly drawn) [Example 281, {(3S,4R)-4-(3,4-Dichloro-phenyl)-1-[1-(6-oxo-piperidine-3-carbonyl)-piperidine-4-carbonyl]-pyrrolidin-3-yl}-methyl-carbamic acid 4-fluoro-phenyl ester], for which the Ki came to 0.3 nM. To `CC(C)N1CC(C(=O)N2CCC(C(=O)N3C[C@@H](N(C)C(=O)Oc4ccc(F)cc4)[C@H](c4ccc(Cl)c(Cl)c4)C3)CC2)CCC1=O` (stereo partly drawn) [Example 282, {(3S,4R)-4-(3,4-Dichloro-phenyl)-1-[1-(1-isopropyl-6-oxo-piperidine-3-carbonyl)-piperidine-4-carbonyl]-pyrrolidin-3-yl}-methyl-carbamic acid 4-fluoro-phenyl ester] belongs 2 nM. As for `CC(=O)N1CCC(C(=O)N2C[C@@H](N(C)C(=O)Oc3ccc(F)cc3)[C@H](c3ccc(Cl)c(Cl)c3)C2)CC1` [Example 283, [(3S,4R)-1-(1-Acetyl-piperidine-4-carbonyl)-4-(3,4-dichloro-phenyl)-pyrrolidin-3-yl]-methyl-carbamic acid 4-fluoro-phenyl ester], the Ki turned out to be 0.7 nM. Regarding `CN(C(=O)Oc1ccc(F)cc1)[C@@H]1CN(C(=O)C2CCN(C(=O)CC#N)CC2)C[C@H]1c1ccc(F)cc1` [Example 284, [(3S,4R)-1-[1-(2-Cyano-acetyl)-piperidine-4-carbonyl]-4-(4-fluoro-phenyl)-pyrrolidin-3-yl]-methyl-carbamic acid 4-fluoro-phenyl ester], the inhibitory constant (Ki) worked out at 31.1 nM.

`CC(=O)N1CCC(C(=O)N2C[C@@H](N(C)C(=O)Oc3ccc(F)cc3)[C@H](c3ccc(F)cc3)C2)CC1` [Example 285, [(3S,4R)-1-(1-Acetyl-piperidine-4-carbonyl)-4-(4-fluoro-phenyl)-pyrrolidin-3-yl]-methyl-carbamic acid 4-fluoro-phenyl ester]: the inhibition constant (Ki) came to 19.1 nM.

In the case of `CN(C(=O)Oc1ccc(F)cc1)[C@@H]1CN(C(=O)C2CCN(C(=O)C3(C)COC3)CC2)C[C@H]1c1ccc(F)cc1` [Example 286, {(3S,4R)-4-(4-Fluoro-phenyl)-1-[1-(3-methyl-oxetane-3-carbonyl)-piperidine-4-carbonyl]-pyrrolidin-3-yl}-methyl-carbamic acid 4-fluoro-phenyl ester], the inhibition constant Ki was 25.4 nM. `CN(C(=O)Oc1ccc(F)cc1)[C@@H]1CN(C(=O)C2CCN(C(=O)C3CC(F)C3)CC2)C[C@H]1c1ccc(F)cc1` (stereo partly drawn) [Example 287, [(3S,4R)-1-[1-(3-Fluoro-cyclobutanecarbonyl)-piperidine-4-carbonyl]-4-(4-fluoro-phenyl)-pyrrolidin-3-yl]-methyl-carbamic acid 4-fluoro-phenyl ester]: the inhibition constant (Ki) is 7.2 nM. On to `CN(C(=O)Oc1ccc(F)cc1)[C@@H]1CN(C(=O)C2CCN(C(=O)C3(C#N)CC3)CC2)C[C@H]1c1ccc(F)cc1` [Example 288, [(3S,4R)-1-[1-(1-Cyano-cyclopropanecarbonyl)-piperidine-4-carbonyl]-4-(4-fluoro-phenyl)-pyrrolidin-3-yl]-methyl-carbamic acid 4-fluoro-phenyl ester], for which the Ki stood at 26.6 nM. Regarding `CN(C(=O)Oc1ccc(F)cc1)[C@@H]1CN(C(=O)C2CCN(C(=O)C3(C(F)(F)F)CCC3)CC2)C[C@H]1c1ccc(F)cc1` [Example 289, {(3S,4R)-4-(4-Fluoro-phenyl)-1-[1-(1-trifluoromethyl-cyclobutanecarbonyl)-piperidine-4-carbonyl]-pyrrolidin-3-yl}-methyl-carbamic acid 4-fluoro-phenyl ester], the inhibitory constant (Ki) came to 11 nM.

With `CN(C(=O)Oc1ccc(F)cc1)[C@@H]1CN(C(=O)C2CCN(C(=O)c3ccc(C(F)(F)F)cn3)CC2)C[C@H]1c1ccc(F)cc1` [Example 290, {(3S,4R)-4-(4-Fluoro-phenyl)-1-[1-(5-trifluoromethyl-pyridine-2-carbonyl)-piperidine-4-carbonyl]-pyrrolidin-3-yl}-methyl-carbamic acid 4-fluoro-phenyl ester], the inhibition constant (Ki) is 99.8 nM. In the case of `CN(C(=O)Oc1ccc(F)cc1)[C@@H]1CN(C(=O)C2CCN(C(=O)C3CCC(=O)NC3)CC2)C[C@H]1c1ccc(F)cc1` (stereo partly drawn) [Example 291, {(3S,4R)-4-(4-Fluoro-phenyl)-1-[1-(6-oxo-piperidine-3-carbonyl)-piperidine-4-carbonyl]-pyrrolidin-3-yl}-methyl-carbamic acid 4-fluoro-phenyl ester], the inhibitory constant (Ki) was 144 nM.

Regarding `CN(C(=O)Oc1ccc(F)cc1)[C@@H]1CN(C(=O)C2CCN(C(=O)[C@@H]3CC(=O)N3)CC2)C[C@H]1c1ccc(Cl)c(Cl)c1` [Example 292, {(3S,4R)-4-(3,4-Dichloro-phenyl)-1-[1-((S)-4-oxo-azetidine-2-carbonyl)-piperidine-4-carbonyl]-pyrrolidin-3-yl}-methyl-carbamic acid 4-fluoro-phenyl ester], the Ki amounted to 0.04 nM.

In the case of `Cc1cc(OC(=O)N(C)[C@@H]2CN(C(=O)C3CCN(C(=O)C4(C)CC4)CC3)C[C@H]2c2ccc(Cl)c(Cl)c2)cc(C)n1` [Example 294, {(3S,4R)-4-(3,4-Dichloro-phenyl)-1-[1-(1-methyl-cyclopropanecarbonyl)-piperidine-4-carbonyl]-pyrrolidin-3-yl}-methyl-carbamic acid 2,6-dimethyl-pyridin-4-yl ester], the Ki amounted to 11.2 nM. To `CN(C(=O)Oc1ccncc1)[C@@H]1CN(C(=O)C2CCN(C(=O)C3(C)CC3)CC2)C[C@H]1c1ccc(Cl)c(Cl)c1` [Example 297, {(3S,4R)-4-(3,4-Dichloro-phenyl)-1-[1-(1-methyl-cyclopropanecarbonyl)-piperidine-4-carbonyl]-pyrrolidin-3-yl}-methyl-carbamic acid pyridin-4-yl ester] belongs 5.9 nM. On to `CN(C(=O)Oc1cccc(Cl)n1)[C@@H]1CN(C(=O)C2CCN(C(=O)C3(C)CC3)CC2)C[C@H]1c1ccc(Cl)c(Cl)c1` [Example 300, {(3S,4R)-4-(3,4-Dichloro-phenyl)-1-[1-(1-methyl-cyclopropanecarbonyl)-piperidine-4-carbonyl]-pyrrolidin-3-yl}-methyl-carbamic acid 6-chloro-pyridin-2-yl ester], for which the inhibition constant Ki turned out to be 2.6 nM.
